Source: patent publication US9555038B2, “Heterocycle-substituted tetracyclic compounds and methods of use thereof for the treatment of viral diseases” (Merck Sharp & Dohme Corp., priority 2013, dated 2017)
Read-outs that look alike come from different tables or passages of the source.

Legend:
[1] = system: HCV replicon 1AY93H; assay: Cell-based HCV Replicon Assay A, replicon 1AY93H
Method in brief: (§1)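 Readout: replicon RNA by real-time RT-PCR, normalised to co-amplified cyclophilin and quantified against replicon total-RNA standard curves. Cells (2000/well) treated 3 days in medium with 5% FBS and 0.5% DMSO, compound in 10 serial dilutions from starting concentrations of 333.3 nM to 1.667 nM.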

[2] = system: HCV replicon 2B; assay: Cell-based HCV Replicon Assay A, replicon 2B
Method in brief: as §1

[3] = system: HCV replicon 1AQ30D; assay: Cell-based HCV Replicon Assay B, replicon 1AQ30D
Method in brief: (§2)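 EC50 defined as the drug concentration giving a CT increase of 1 above projected baseline, from real-time RT-PCR of replicon RNA using genotype-specific primers and probes. Cells were seeded in 5% FBS, dosed after 24 h and incubated 3 days before lysis.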

[4] = system: HCV replicon 1A; assay: Cell-based HCV Replicon Assay A, replicon 1A
Method in brief: as §1

[5] = system: HCV replicon 1B; assay: Cell-based HCV Replicon Assay B, replicon 1B
Method in brief: as §2

[6] = replicon 1AY93H, read-out: 1A Y93H IC50
[7] = replicon 1AQ30D, read-out: 1A Q30D IC50
[8] = read-out: 1A Y93H IC50, replicon 1AY93H
[9] = read-out: 1A Q30D IC50, replicon 1AQ30D

| SMILES | IC50 [1, 6] | IC50 ([2]; replicon 2B, read-out: 2B IC50) | IC50 [3, 7] | IC50 [4] | IC50 [5] | IC50 [1, 8] | IC50 ([2]; read-out: 2B IC50, replicon 2B) | IC50 [3, 9] | IC50 ([4]; Hepatitis C virus) | IC50 ([5]; Hepatitis C virus) |
| --- | --- | --- | --- | --- | --- | --- | --- | --- | --- | --- |
| COC(=O)NC(C(=O)N1[C@@H]2C[C@@H]2C[C@H]1c1ncc(-c2ccc3c(c2)cc2n3C(c3cnc(CC(C)C)s3)Oc3cc(-c4cnc([C@@H]5CCCN5C(=O)[C@@H](NC(=O)OC)C(C)C)[nH]4)cc(F)c3-2)[nH]1)C1CCOC(C)(C)C1 (single isomer, unassigned) [Compound 438] | 4 pM | 6 pM | 30 pM | 3.6 pM | 3.7 pM | – | – | – | – | – |
| COC(=O)NC(C(=O)N1[C@@H]2C[C@@H]2C[C@H]1c1ncc(-c2ccc3c(c2)cc2n3C(c3cnc(CC(C)C)s3)Oc3cc(-c4cnc([C@@H]5CCCN5C(=O)[C@@H](NC(=O)OC)C(C)C)[nH]4)cc(F)c3-2)[nH]1)C1CCOC(C)(C)C1 (single isomer, unassigned) [Compound 439] | 4 pM | 6 pM | 18 pM | 2.7 pM | 2.1 pM | – | – | – | – | – |
| COC(=O)NC(C(=O)N1[C@@H]2C[C@@H]2C[C@H]1c1ncc(-c2ccc3c(c2)cc2n3C(c3cnc(CC(C)C)s3)Oc3cc(-c4cnc([C@@H]5CCCN5C(=O)[C@@H](NC(=O)OC)C(C)C)[nH]4)cc(F)c3-2)[nH]1)C1C[C@@H](C)O[C@@H](C)C1 (single isomer, unassigned) [Compound 440] | – | – | – | – | – | 146 pM | 320 pM | 967 pM | 2.3 pM | 3.6 pM |
| COC(=O)NC(C(=O)N1[C@@H]2C[C@@H]2C[C@H]1c1ncc(-c2ccc3c(c2)cc2n3C(c3cnc(CC(C)C)s3)Oc3cc(-c4cnc([C@@H]5CCCN5C(=O)[C@@H](NC(=O)OC)C(C)C)[nH]4)cc(F)c3-2)[nH]1)C1C[C@@H](C)O[C@@H](C)C1 (single isomer, unassigned) [Compound 441] | – | – | – | 2.5 pM | 3.4 pM | 3 pM | 6 pM | 11 pM | – | – |
| CCC(CC)c1ncc(C2Oc3cc(-c4cnc([C@@H]5CCCN5C(=O)[C@@H](NC(=O)OC)C(C)C)[nH]4)cc(F)c3-c3cc4cc(-c5cnc([C@@H]6CCCN6C(=O)C(NC(=O)OC)C6CCOC(C)(C)C6)[nH]5)ccc4n32)s1 (single isomer, unassigned) [Compound 444] | – | – | – | – | – | 5 pM | 7 pM | 38 pM | 2.2 pM | 3.8 pM |
| CCC(CC)c1ncc(C2Oc3cc(-c4cnc([C@@H]5CCCN5C(=O)[C@@H](NC(=O)OC)C(C)C)[nH]4)cc(F)c3-c3cc4cc(-c5cnc([C@@H]6CCCN6C(=O)C(NC(=O)OC)C6CCOC(C)(C)C6)[nH]5)ccc4n32)s1 (single isomer, unassigned) [Compound 445] | – | – | – | 2.8 pM | 4.6 pM | 107 pM | 96 pM | 949 pM | – | – |
| COC(=O)NC(C(=O)N1CCC[C@H]1c1ncc(-c2ccc3c(c2)cc2n3C(c3cnc(C4(C)CCCC4)s3)Oc3cc(-c4cnc([C@@H]5CCCN5C(=O)[C@@H](NC(=O)OC)C(C)C)[nH]4)cc(F)c3-2)[nH]1)C1CCOC(C)(C)C1 (single isomer, unassigned) [Compound 446] | – | – | – | – | – | 4 pM | 5 pM | 34 pM | 1.8 pM | 3.4 pM |
| COC(=O)NC(C(=O)N1CCC[C@H]1c1ncc(-c2ccc3c(c2)cc2n3C(c3cnc(C4(C)CCCC4)s3)Oc3cc(-c4cnc([C@@H]5CCCN5C(=O)[C@@H](NC(=O)OC)C(C)C)[nH]4)cc(F)c3-2)[nH]1)C1CCOC(C)(C)C1 (single isomer, unassigned) [Compound 447] | – | – | – | 2.8 pM | 3.3 pM | 259 pM | 59 pM | 607 pM | – | – |
| COC(=O)NC(C(=O)N1CCC[C@H]1c1ncc(-c2ccc3c(c2)cc2n3C(c3cnc(C4CCOCC4)s3)Oc3cc(-c4cnc([C@@H]5CCCN5C(=O)[C@@H](NC(=O)OC)C(C)C)[nH]4)cc(F)c3-2)[nH]1)C1CCOC(C)(C)C1 (single isomer, unassigned) [Compound 448] | – | – | – | – | – | 13 pM | 11 pM | 113 pM | 4.7 pM | 6 pM |
| COC(=O)NC(C(=O)N1CCC[C@H]1c1ncc(-c2ccc3c(c2)cc2n3C(c3cnc(C4CCOCC4)s3)Oc3cc(-c4cnc([C@@H]5CCCN5C(=O)[C@@H](NC(=O)OC)C(C)C)[nH]4)cc(F)c3-2)[nH]1)C1CCOC(C)(C)C1 (single isomer, unassigned) [Compound 449] | – | – | – | 4.3 pM | 3.4 pM | 64 pM | 44 pM | 737 pM | – | – |
| COC(=O)N[C@H](C(=O)N1CCC[C@H]1c1ncc(-c2cc(F)c3c(c2)OC(c2cnc(C4(C)CC4)s2)n2c-3cc3cc(-c4cnc([C@@H]5C[C@H]6C[C@H]6N5C(=O)[C@@H](NC(=O)OC)C(C)C)[nH]4)ccc32)[nH]1)C(C)C (single isomer, unassigned) [Compound 452] | – | – | – | – | – | 4 pM | 40 pM | 93 pM | 2.7 pM | 2.5 pM |
